{
  "source": "patent US20260199324A1",
  "about": "“METHOD OF TREATING BREAST CANCER” (Arvinas Operations, Inc., priority 2022, published 2026)",
  "key": {"[1]": {"assay": "Preclinical exposure of epimer Compound B compared to Compound A", "format": "in vivo", "conditions": "preclinical data; Compound B formed by interconversion (epimer) of Compound A"}, "ER": {"molecular_target": "T1, ER (Homo sapiens, UniProt P03372)", "T1 sequence (P03372 1-595)": "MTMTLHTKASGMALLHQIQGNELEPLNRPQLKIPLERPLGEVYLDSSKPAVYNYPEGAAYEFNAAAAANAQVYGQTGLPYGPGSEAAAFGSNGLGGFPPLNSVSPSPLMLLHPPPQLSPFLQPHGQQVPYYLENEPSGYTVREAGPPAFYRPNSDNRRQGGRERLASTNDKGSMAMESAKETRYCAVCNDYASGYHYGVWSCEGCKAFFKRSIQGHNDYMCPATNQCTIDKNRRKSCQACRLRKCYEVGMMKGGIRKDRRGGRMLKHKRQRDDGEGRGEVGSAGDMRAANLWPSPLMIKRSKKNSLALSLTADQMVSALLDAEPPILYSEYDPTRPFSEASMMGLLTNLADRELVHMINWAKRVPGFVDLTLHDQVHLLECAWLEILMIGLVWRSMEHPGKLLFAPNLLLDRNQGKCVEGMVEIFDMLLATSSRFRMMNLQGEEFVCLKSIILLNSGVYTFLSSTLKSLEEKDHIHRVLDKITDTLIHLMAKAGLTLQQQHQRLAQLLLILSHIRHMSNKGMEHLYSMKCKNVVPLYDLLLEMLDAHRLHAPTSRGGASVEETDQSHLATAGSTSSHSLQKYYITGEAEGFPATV", "assay": "ER degradation", "format": "cell-based"}, "[2]": {"test_system": "ER-dependent transcription", "assay": "Antagonism of ER-dependent transcription", "format": "cell-based"}, "P-gp": {"molecular_target": "T2, P-gp (Homo sapiens, UniProt P08183)", "T2 construct": "from tissue; host or cells: intestine of healthy human participants (in vivo)", "T2 sequence (P08183 whole entry)": "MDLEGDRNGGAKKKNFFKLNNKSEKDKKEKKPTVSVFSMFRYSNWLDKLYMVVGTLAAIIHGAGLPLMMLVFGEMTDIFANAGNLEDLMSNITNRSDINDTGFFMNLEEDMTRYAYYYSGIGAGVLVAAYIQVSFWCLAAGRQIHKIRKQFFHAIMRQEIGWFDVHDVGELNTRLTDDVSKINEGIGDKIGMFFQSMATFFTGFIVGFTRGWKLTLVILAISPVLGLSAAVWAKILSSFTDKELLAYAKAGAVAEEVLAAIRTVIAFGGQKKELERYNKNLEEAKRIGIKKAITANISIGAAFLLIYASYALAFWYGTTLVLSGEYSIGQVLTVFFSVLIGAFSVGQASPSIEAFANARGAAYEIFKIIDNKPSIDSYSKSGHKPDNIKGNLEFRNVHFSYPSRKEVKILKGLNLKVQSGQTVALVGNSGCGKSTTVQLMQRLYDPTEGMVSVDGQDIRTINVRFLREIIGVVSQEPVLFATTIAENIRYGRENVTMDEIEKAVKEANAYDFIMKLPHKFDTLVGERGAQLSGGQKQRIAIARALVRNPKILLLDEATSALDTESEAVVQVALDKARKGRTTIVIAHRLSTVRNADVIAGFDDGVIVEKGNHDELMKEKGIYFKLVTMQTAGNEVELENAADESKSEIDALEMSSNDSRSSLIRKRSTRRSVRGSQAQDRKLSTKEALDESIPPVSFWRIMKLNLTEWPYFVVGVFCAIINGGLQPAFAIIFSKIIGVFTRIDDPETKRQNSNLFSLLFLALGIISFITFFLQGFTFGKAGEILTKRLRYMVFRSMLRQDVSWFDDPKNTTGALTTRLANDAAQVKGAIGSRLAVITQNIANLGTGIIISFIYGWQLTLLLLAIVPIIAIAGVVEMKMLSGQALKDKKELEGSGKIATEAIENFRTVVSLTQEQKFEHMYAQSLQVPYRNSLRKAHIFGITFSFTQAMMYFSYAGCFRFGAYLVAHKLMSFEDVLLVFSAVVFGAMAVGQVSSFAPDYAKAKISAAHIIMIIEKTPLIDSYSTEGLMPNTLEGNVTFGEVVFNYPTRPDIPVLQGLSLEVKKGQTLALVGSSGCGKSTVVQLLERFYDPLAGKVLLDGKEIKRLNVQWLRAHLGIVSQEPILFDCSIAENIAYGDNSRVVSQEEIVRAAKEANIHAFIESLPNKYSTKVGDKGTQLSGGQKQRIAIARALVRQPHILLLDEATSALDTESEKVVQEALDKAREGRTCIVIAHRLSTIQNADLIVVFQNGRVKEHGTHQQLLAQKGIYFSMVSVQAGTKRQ", "assay": "Phase 1 open-label fixed-sequence 2-period drug-drug interaction study: effect of single oral dose of Compound A on PK of dabigatran (P-gp probe substrate)", "format": "in vivo", "conditions": "co-administration of Compound A with dabigatran in healthy participants", "description": "Compound A was investigated in an interventional, Phase 1, open-label, fixed sequence, 2-period study to evaluate the effect of a single oral dose of Compound A on the PK of dabigatran in healthy participants.\nThe objective of this drug-drug interaction study was to evaluate the impact of Compound A on the PK of dabigatran etexilate (a model substrate for P-gp) in healthy adults (NCT05673889)\nAll participants in this study received one dose of dabigatran etexilate mesylate alone by mouth in Period 1. In Period 2, everyone received one dose of dabigatran etexilate mesylate by mouth approximately 90 mins after receiving one dose of Compound A by mouth. The levels of dabigatran in Period I were compared to the levels of dabigatran in Period 2. This study design was used to determine if and how Compound A affects dabigatran absorption into the body in healthy adults.\nThis was a Phase 1, open-label, 2-period, fixed-sequence study to estimate the effect of a single oral dose of Compound A on the PK of a P-gp substrate, dabigatran etexilate (as mesylate), in healthy male participants and female participants with nonchildbearing potential. […]\nNatural log transformed parameters (AUCinf [if data permitted], AUClast, and Cmax) of total dabigatran were analyzed using a mixed effect model with treatment as a fixed effect and participant as a random effect. […]"}, "[3]": {"assay": "Safety and tolerability (TEAEs, clinical laboratory tests, vital signs, ECGs) in the Phase 1 drug-drug interaction study", "format": "in vivo, human", "conditions": "for number of all-causality adverse events (AEs): 24 participants", "description": "This was a Phase 1, open-label, 2-period, fixed-sequence study to estimate the effect of a single oral dose of Compound A on the PK of a P-gp substrate, dabigatran etexilate (as mesylate), in healthy male participants and female participants with nonchildbearing potential.\nOn Period 1 Day 1, a standard breakfast (approximately 700 calories with a fat content of approximately 35%) was provided prior to dosing. The standard breakfast was required to be completely consumed within an approximately 20-minute period. A single dose of 75 mg dabigatran etexilate (as mesylate) (as 1 capsule of 75 mg) was administered approximately 2 hrs (120 mins) after starting the standard breakfast. To adequately remove any drug effects of dabigatran, a minimum washout period of 4 days was required after dabigatran etexilate (as mesylate) administration on Period 1 Day 1. Serial PK samples were collected up to 48 hrs after single dose administration to determine dabigatran PK parameters (total).\nOn Period 2 Day 1, a standard breakfast (approximately 700 calories with a fat content of approximately 35%) was provided prior to Compound A and dabigatran etexilate (as mesylate) dosing. The standard breakfast was required to be the same as provided in Period 1 Day 1 and was required to be completely consumed within an approximately 20-minute period. A single dose of 200 mg Compound A (as 2 tablets of 100 mg) was administered approximately 10 mins after the completion of the breakfast. A single dose of 75 mg dabigatran etexilate\n(as mesylate) (as 1 capsule of 75 mg) was administered approximately 1.5 hour (90 mins) after the start of Compound A dosing, which was approximately 2 hrs (120 mins) after the start of the breakfast. Serial PK samples were collected up to 48 hrs post dabigatran etexilate (as mesylate) dosing to determine the single dose PK parameters of Compound A and dabigatran (total) • Masking: No masking (open label) • Enrollment number: 24\nCompound A co-administered with dabigatran etexilate mesylate was the test treatment. All safety analyses were performed on the safety analysis set. Safety data were presented in tabular and/or graphical format and summarized descriptively, where appropriate in accordance with the Clinical Data Interchange Standards Consortium Standards […]."}, "[4]": {"assay": "Biopharmaceutics Classification System class", "format": "physicochemical", "conditions": "low solubility/low permeability"}, "[5]": {"conditions": "Compound A 200 mg and dabigatran etexilate mesylate 75 mg, not considered treatment related"}, "[6]": {"conditions": "single dose Compound A 200 mg and dabigatran etexilate mesylate 75 mg"}, "[7]": {"conditions": "single dose Compound A 200 mg and dabigatran etexilate mesylate 75 mg (Treatment Period 2)"}, "[8]": {"conditions": "single dose dabigatran etexilate mesylate 75 mg (Treatment Period 1)"}, "[9]": {"conditions": "dabigatran etexilate mesylate 75 mg alone"}, "[10]": {"conditions": "dabigatran etexilate mesylate 75 mg alone, considered treatment related"}, "[11]": {"conditions": "dabigatran etexilate mesylate 75 mg alone, not considered treatment related"}},
  "note": "Counter-ions that a name gives are not always drawn.",
  "data": [
    {"smiles": "O=C1CC[C@@H](N2Cc3cc(N4CCN(CC5CCN(c6ccc([C@@H]7c8ccc(O)cc8CC[C@@H]7c7ccccc7)cc6)CC5)CC4)ccc3C2=O)C(=O)N1", "note": "[Compound B]", "values": [
      {"measurement": "exposure of Compound B compared to Compound A", "setting": "[1]", "value": "< 26", "unit": "%"},
      {"measurement": "degradation of the ER", "setting": "ER", "value": "does not degrade the ER"},
      {"measurement": "antagonism of ER-dependent transcription compared to Compound A", "setting": "[2]", "value": "similar"}
    ]},
    {"smiles": "O=C1CC[C@H](N2Cc3cc(N4CCN(CC5CCN(c6ccc([C@@H]7c8ccc(O)cc8CC[C@@H]7c7ccccc7)cc6)CC5)CC4)ccc3C2=O)C(=O)N1", "note": "[Compound A, (S)-3-(5-(4-((1-(4-((1R,2S)-6-hydroxy-2-phenyl-1,2,3,4-tetrahydronaphthalen-1-yl)phenyl)piperidin-4-yl)methyl)piperazin-1-yl)-1-oxoisoindolin-2-yl) piperidine-2,6-dione]", "values": [
      {"measurement": "P-gp inhibition (conclusion from increased dabigatran exposure)", "setting": "P-gp", "value": "P-gp inhibitor"},
      {"measurement": "participants with moderate AE of contusion", "setting": "[3]; Compound A 200 mg and dabigatran etexilate mesylate 75 mg", "value": "1 (4.2%) participants (%)"},
      {"measurement": "participants with moderate AE of headache", "setting": "[3]; Compound A 200 mg and dabigatran etexilate mesylate 75 mg, considered treatment related", "value": "1 (4.2%) participants (%)"},
      {"measurement": "participants with mild AE of contusion", "setting": "[3]; [5]", "value": "1 (4.2%) participants (%)"},
      {"measurement": "participants with mild AE of oropharyngeal pain", "setting": "[3]; [5]", "value": "1 (4.2%) participants (%)"},
      {"measurement": "participants with mild AE of rhinorrhea", "setting": "[3]; [5]", "value": "1 (4.2%) participants (%)"},
      {"measurement": "participants with mild AE of wound", "setting": "[3]; [5]", "value": "1 (4.2%) participants (%)"},
      {"measurement": "participants with Leukocyte Esterase ≥1", "setting": "[3]; [6]", "value": "1 (4.2%) participants (%)"},
      {"measurement": "participants with Monocytes/Leukocytes >1.2×ULN", "setting": "[3]; [6]", "value": "2 (8.3%) participants (%)"},
      {"measurement": "number of AEs considered treatment related", "setting": "[3]; [7]", "value": 1},
      {"measurement": "participants with all-causality AEs (TEAEs)", "setting": "[3]; [7]", "value": "6 (25.0%) participants (%)"},
      {"measurement": "number of all-causality adverse events (AEs)", "setting": "[3]; [7]", "value": 7},
      {"measurement": "participants with treatment related AEs", "setting": "[3]; single dose Compound A 200 mg and dabigatran etexilate mesylate 75 mg (Treatment Period 2), headache", "value": "1 (4.2%) participants (%)"},
      {"measurement": "Biopharmaceutics Classification System class", "setting": "[4]", "value": "Class IV"}
    ]},
    {"smiles": "[H]/N=C(/N)c1ccc(NCc2nc3cc(C(=O)N(CCC(=O)O)c4ccccn4)ccc3n2C)cc1", "note": "[dabigatran, 3-[[2-[(4-carbamimidoylanilino)methyl]-1-methylbenzimidazole-5-carbonyl]-pyridin-2-ylamino]propanoic acid]", "values": [
      {"measurement": "participants with all-causality AEs (TEAEs)", "setting": "[3]; [8]", "value": "6 (25.0%) participants (%)"},
      {"measurement": "participants with treatment related AEs", "setting": "[3]; [8]", "value": "3 (12.5%) participants (%)"}
    ]},
    {"smiles": "CCCCCCOC(=O)NC(=N)c1ccc(NCc2nc3cc(C(=O)N(CCC(=O)OCC)c4ccccn4)ccc3n2C)cc1", "note": "[dabigatran etexilate mesylate, β-Alanine, N-[[2-[[[4-[[[(hexyloxy)carbonyl]amino]iminomethyl]phenyl]amino]methyl]-1-methyl-1H-benzimidazol-5-yl]carbonyl]-N-2-pyridinyl-, ethyl ester]", "values": [
      {"measurement": "participants with mild AE of dry throat", "setting": "[3]; [9]", "value": "1 (4.2%) participants (%)"},
      {"measurement": "participants with mild AE of lip dry", "setting": "[3]; [9]", "value": "1 (4.2%) participants (%)"},
      {"measurement": "participants with mild AE of diarrhea", "setting": "[3]; [10]", "value": "1 (4.2%) participants (%)"},
      {"measurement": "participants with mild AE of dry skin", "setting": "[3]; [10]", "value": "1 (4.2%) participants (%)"},
      {"measurement": "participants with mild AE of hot flush", "setting": "[3]; [10]", "value": "1 (4.2%) participants (%)"},
      {"measurement": "participants with mild AE of nausea", "setting": "[3]; [10]", "value": "1 (4.2%) participants (%)"},
      {"measurement": "participants with moderate AE of hematoma", "setting": "[3]; [11]", "value": "2 (8.3%) participants (%)"},
      {"measurement": "participants with moderate AE of myalgia", "setting": "[3]; [11]", "value": "1 (4.2%) participants (%)"},
      {"measurement": "participants with Monocytes/Leukocytes >1.2× upper limit of normal (ULN)", "setting": "[3]; single dose dabigatran etexilate mesylate 75 mg", "value": "2 (8.3%) participants (%)"},
      {"measurement": "number of AEs considered treatment related", "setting": "[3]; [8]", "value": 4},
      {"measurement": "participants with all-causality AEs (TEAEs)", "setting": "[3]; [8]", "value": "6 (25.0%) participants (%)"},
      {"measurement": "participants with treatment related AEs", "setting": "[3]; [8]", "value": "3 (12.5%) participants (%)"},
      {"measurement": "number of all-causality adverse events (AEs)", "setting": "[3]; [8]", "value": 9}
    ]}
  ]
}
